Experimental data from patent publication US20040152727A1, “Novel use” (priority 2001, published 2004).
Marks after values point to notes of the source that are not given here.

How the values were obtained:
rats [1] = assay: rat gastric emptying, phenol red method; format: in vivo; details: for % GASTRIC EMPTYING: rat, oral
rats [2] = assay: egg-albumin sensitized increase in rat small intestinal transit; format: in vivo; details: pre-treatment 15 mg/kg po
[3] = system: guinea-pig isolated colon; assay: stretch-induced reflex activity in guinea-pig isolated colon; details: 250 nM applied for 30-45 min; 6, 12 or 20 g weights; greater at higher distension
From the text: For reflex studies, 5-7 cm lengths of colon were suspended in warmed, oxygenated physiological saline, so that an 8 mm metal bar could be inserted into the lumen and connected, via a thread passing through the intestinal wall, to a pulley system which allowed different weights to pull on the bar and distend the intestine. Force transducers were attached to the wall of the colon via small wire hooks, 5 mm either side of the distending bar. Colonic wall distension using 6, 12 or 20 g weights evoked rhythmic contractions oral to the distension and a small relaxation on the anal side. Application of 12 and 20 g weights evoked similar patterns of activity and although the small relaxation on the anal side of the distension seemed more apparent, the oral excitatory response was not different from the effects of the 6 g weight.

rat NK-3 receptor = target: T1, rat NK-3 receptor (Rattus norvegicus, UniProt P16177); assay: affinity for the rat NK-3 receptor; format: binding; details: relative to its higher affinity for the human or guinea-pig variants
T1 sequence (P16177 1-452): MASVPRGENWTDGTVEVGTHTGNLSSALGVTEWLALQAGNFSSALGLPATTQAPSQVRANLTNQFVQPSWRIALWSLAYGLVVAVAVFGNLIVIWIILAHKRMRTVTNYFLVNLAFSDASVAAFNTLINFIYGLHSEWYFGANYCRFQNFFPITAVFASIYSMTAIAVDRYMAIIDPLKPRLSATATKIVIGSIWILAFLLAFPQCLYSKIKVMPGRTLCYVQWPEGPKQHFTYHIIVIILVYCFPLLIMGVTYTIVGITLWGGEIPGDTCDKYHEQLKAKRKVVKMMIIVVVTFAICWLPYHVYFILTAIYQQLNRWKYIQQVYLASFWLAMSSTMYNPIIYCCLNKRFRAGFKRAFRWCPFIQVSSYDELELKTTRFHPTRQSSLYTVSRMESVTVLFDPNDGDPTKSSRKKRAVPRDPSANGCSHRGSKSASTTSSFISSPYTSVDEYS

rats [4] = assay: gastrointestinal motility in rats, charcoal meal test; format: in vivo, rat; details: for effect on gastrointestinal motility in the rat: charcoal meal test; for % CHANGE FROM VEHICLE-TREATED ANIMALS / GROUP MEAN DISTANCE TRAVELLED BY CHARCOAL AS % OF TOTAL GUT LENGTH ± SD: rat, oral
From the text: Thus, the distance travelled by the charcoal meal in each Compound (I)-treated group was similar to the vehicle-treated group at each tested dose.

rats [5] = assay: small intestinal transit in normal, non-sensitised animals; format: in vivo, rat; details: 15 mg/kg po
conscious rats = assay: colo-rectal distension in conscious rats (intestinal nociception); format: in vivo, rat
[6] = system: guinea-pig enteric neurones; assay: slow EPSP in guinea-pig enteric neurones; format: cell-based; details: 0.1 microM
Protocol: The slowEPSP was elicited by high frequency (20 Hz) electrical stimulation for 1 s, applied to a circumferential internodal strand connecting to the ganglion. […] It was perfused continuously and the slowEPSP was tested at various intervals. In all four neurons there was a decrease of peak amplitude of depolarisation of over 50% when compared with baseline, once the drug had circulated for at least 30 minutes.

For `CC[C@H](NC(=O)c1c(O)c(-c2ccccc2)nc2ccccc12)c1ccccc1` [Compound (I), (S)-N-(α-ethylbenzyl)-3-hydroxy-2-phenylquinoline-4-carboxamide], the “effect on rat gastric emptying” value (rats [1]; oral doses of 5, 15 and 50 mg/kg) was “no marked or statistically significant effects”, the “% GASTRIC EMPTYING” value (rats [1]; 5 mg/kg) was 55.2% and the “% GASTRIC EMPTYING” value (rats [1]; 15 mg/kg) was 50.7%. For the same molecule, the “% GASTRIC EMPTYING” value (rats [1]; 50 mg/kg) was 62.4%, the “effect on increased transit after egg-albumin sensitisation” value (rats [2]) was “greatly inhibited” and the “effect on reflexes evoked by colonic wall distension” value [3] was “reduced the effects of distension”. For the same molecule, the “affinity for the rat NK-3 receptor” value (rat NK-3 receptor) was “low affinity”, the “effect on gastrointestinal motility in the rat” value (rats [4]; oral, 5, 15 and 50 mg/kg) was “no marked or statistically significant effect” and the “% CHANGE FROM VEHICLE-TREATED ANIMALS” value (rats [4]; 5 mg/kg) was −11.5%. For the same molecule, the “GROUP MEAN DISTANCE TRAVELLED BY CHARCOAL AS % OF TOTAL GUT LENGTH ± SD” value (rats [4]; 5 mg/kg) was 46.9 ± 5.3%, the “% CHANGE FROM VEHICLE-TREATED ANIMALS” value (rats [4]; 15 mg/kg) was −1.7% and the “GROUP MEAN DISTANCE TRAVELLED BY CHARCOAL AS % OF TOTAL GUT LENGTH ± SD” value (rats [4]; 15 mg/kg) was 52.1 ± 7.1%. The “% CHANGE FROM VEHICLE-TREATED ANIMALS” value (rats [4]; 50 mg/kg) was −4.9%, the “GROUP MEAN DISTANCE TRAVELLED BY CHARCOAL AS % OF TOTAL GUT LENGTH ± SD” value (rats [4]; 50 mg/kg) was 50.4 ± 8.6% and the “effect on small intestinal transit” value (rats [5]) was “did not significantly affect”. For the same molecule, the “antinociceptive effect during colo-rectal distension” value (conscious rats; 10 mg/kg po) was “without anti-nociceptive activity”, the “antinociceptive effect during colo-rectal distension” value (conscious rats; 30 mg/kg po) was “statistically significant only at the highest distension pressure” and the “effect on colo-rectal tone” value (conscious rats; 50 mg/kg po) was “without affecting colo-rectal tone”. For the same molecule, the “antinociceptive effect during colo-rectal distension” value (conscious rats; 50 mg/kg po, 30, 45 and 60 mmHg distension pressures) was “significant antinociceptive effect”, the “decrease of peak amplitude of depolarisation of slowEPSP compared with baseline” value ([6]; circulated at least 30 minutes, all four neurons) was “over 50%” and the “blockade of slowEPSP” value ([6]; one neuron) was 100%. The “blockade of slowEPSP based on the amplitude of depolarisation” value ([6]; the other three neurons) was 60-80%.
For `CN1CC[C@]23c4c5ccc(O)c4O[C@H]2[C@@H](O)C=C[C@H]3[C@H]1C5.O=S(=O)(O)O` [Morphine sulfate, reference compound], the “effect on rat gastric emptying” value (rats [1]; orally at 20 mg/kg) was “marked and statistically significant decrease”, the “% GASTRIC EMPTYING” value (rats [1]; 20 mg/kg) was 30.8** % and the “effect on gastrointestinal motility in the rat” value (rats [4]; oral dose of 10 mg/kg) was “marked and statistically significant decrease”. The “% CHANGE FROM VEHICLE-TREATED ANIMALS” value (rats [4]; 10 mg/kg) was −29.4% and the “GROUP MEAN DISTANCE TRAVELLED BY CHARCOAL AS % OF TOTAL GUT LENGTH ± SD” value (rats [4]; 10 mg/kg) was 37.4 ± 12.4%.
